Our source for the XC50 values is ChEMBL document CHEMBL1157539, “Thousands of chemical starting points for antimalarial lead identification” (Nature, 2010).

In the assay the test system is Plasmodium falciparum. Briefly: GSK_TCMDC: Inhibition of Plasmodium falciparum 3D7 in whole erythrocytes, using parasite LDH activity as an index of growth. The assay is classed as functional, organism-based. Conditions: Plasmodium falciparum, 3D7.
Compound `CN/C(=C\[N+](=O)[O-])NCCSCc1cc(C)c(CN(C)C)s1` returned an XC50 of 348 nM. Then `Cc1cc(N/N=C/c2ccccc2[N+](=O)[O-])c2cc(C(F)(F)F)ccc2n1`, with 750 nM; and `Cc1cc(N/N=C/c2cccc([N+](=O)[O-])c2)c2ccc(C(F)(F)F)cc2n1`, with 876 nM. As for `Cc1[nH]c(C)c(-c2ccc(Oc3cccc(Cl)c3)cc2)c(=O)c1Br`, the XC50 amounted to 34.2 nM. Then `O=C(NCc1ccc(C(=O)NCc2cccc3ccccc23)cc1)c1ccc(O)c(-c2ccc(Cl)c(Cl)c2)c1`, with 814 nM; and `Nc1nc(N)c2c(ccc3c2ccn3CCCCO)n1`, with 117 nM; and `COc1ccc(CNc2ccnc(-n3cnc4cc(C)c(C)cc43)n2)cc1Cl`, with 274 nM. Under `Cc1cc(O)c2c3c1C(=O)C=C1C3c3c(c(O)cc(O)c3C(=O)C1(C)C)C2=O` (stereo unspecified) stands 1680 nM; under `N=C(N)NN=CC(=O)Nc1ccc(Cl)c(Cl)c1`, 737 nM. Under `O=C(NCCCCCN1CCCN(C(=O)Nc2ccc(F)c(C(F)(F)F)c2)CC1)C1CC1c1ccc(Cl)c(Cl)c1` (stereo unspecified) stands 1030 nM; under `CN1CCN(CC(=O)Nc2cccc(-c3ccc(-c4nc5cc(F)ccc5[nH]4)s3)c2)CC1`, 679 nM.

In turn, `N=C(N)NCC=C(c1ccccc1)c1ccccc1` registered an XC50 of 989 nM. Under `O=C(Nc1ccccc1)N(Cc1ccc(-c2ccc(CNCc3ccc4c(c3)OCO4)cc2)cc1)C1CCN(Cc2ccccc2)CC1` stands 570 nM. `CCN(CC)CCN(Cc1ccc(-c2ccc(Cl)cc2)cc1)C(=O)Cn1cc(CN(C)C)c(=O)nc1SCc1ccc(F)cc1` gave an XC50 of 748 nM. Under `Cc1ccc2c(=O)c3cc(C)ccc3[nH]c2c1` stands 424 nM; under `O=C(/C=C/c1ccc(Cl)c(Cl)c1)NCCCCCN1CCCC(CNC(=O)/C=C/c2ccccc2)C1` (stereo unspecified), 791 nM. `Cc1cc(C)n(-c2nc(Nc3cccc(C(F)(F)F)c3)nc(-n3nc(C)cc3C)n2)n1`: the XC50 stood at 362 nM.

The compound `O=C(NCc1ccco1)c1ccc(CN2CCN(C(c3ccccc3)c3ccccc3)CC2)cc1` yielded an XC50 of 789 nM. Under `O=C(CC(=O)C(F)(F)F)c1ccc2c(c1)OCO2` stands 744 nM; under `CC(=O)Oc1c(Cl)c(C)nc(C)c1-c1ccc(Oc2ccc(OC(F)(F)F)cc2)cc1`, 96.2 nM; under `COc1cccc(CCc2ccc(O)c3c2C[C@H]2C[C@H]4[C@H](N(C)C)C(O)=C(C(N)=O)C(=O)[C@@]4(O)C(O)=C2C3=O)c1`, 850 nM. Under `CC(CCCCC(=O)Nc1ccc(C(F)(F)F)cc1)NCC(O)c1cccc(Cl)c1` (stereo unspecified) stands 282 nM.

Compound `O=C(N[C@@H](Cc1ccccc1)C(=O)NCc1cccc(C(F)(F)F)c1)c1ccc(O)c(-c2ccc(Cl)c(Cl)c2)c1` registered an XC50 of 696 nM. Compound `COCCCNc1nc2cc(OC)c(OC)cc2c2nc(-c3ccccc3)nn12` had an XC50 of 192 nM. Then `CC(=O)Nc1ccc(CN2Cc3ccc(NC(=O)Nc4ccc(Oc5ccccc5)cc4)cc3C2)s1`, with 918 nM. `O=C(/C=C/c1ccc(Cl)c(Cl)c1)NCCCCCN1CCC(C(=O)Nc2ccc(F)c(Cl)c2)CC1` yielded an XC50 of 647 nM. Under `Cc1cccc2nc(-c3cccc(-c4cccc(NC(=O)Nc5ccc(Cl)cc5)c4)c3)[nH]c12` stands 236 nM; under `Cc1nc(-c2ccncc2)sc1C(=O)Nc1ccc(Cl)cc1C(=O)Nc1ccc(Cl)cc1`, 759 nM. Under `CCn1ccc2c(N3CCCCS3(=O)=O)cc(C(=O)N[C@@H](Cc3ccccc3)[C@H](O)CNC3CCCCC3)cc21` stands 122 nM; under `COc1cccc(CN2CCCC(COC(c3ccc(F)cc3)c3ccc(F)cc3)C2)c1O` (stereo unspecified), 330 nM; under `COc1ccc(N2CCN(CCCCNC(=O)c3ccc(NC(=O)c4cc(Cl)cc(Cl)c4)cc3)CC2)c(OC)c1`, 299 nM. Then `Cc1cccc2nc(-c3ccc(-c4ccc(CNCCN5CCNCC5)cc4)s3)[nH]c12`, with 1150 nM; and `CC(=O)C1(c2ccccc2)CCN(CCC2(c3ccc(Cl)c(Cl)c3)CN(C(=O)C3CCCC3)CCO2)CC1` (stereo unspecified), with 798 nM; and `CCOc1ccc(C=CC(=O)Nc2ccc3nc(N4CCOCC4)cc(C)c3c2)cc1OC`, with 901 nM. The compound `COc1ccc2[nH]cc(C3=CCN(CC4CC4C(=O)c4ccccc4)CC3)c2n1` (stereo unspecified) gave an XC50 of 270 nM. With `COc1cccc(NC(=O)Nc2ccc(-c3oc(C(=O)NCC(c4ccccc4)N(C)C)cc3-c3ccncc3)cc2)c1` (stereo unspecified), the XC50 is 1830 nM. Then `Cc1cc(C(F)(F)F)n2nc(C(=O)N(Cc3cncn3Cc3cccc(F)c3)CC3CC3)cc2n1`, with 742 nM; and `Cc1cccc2nc(-c3ccc(-c4cccc(CN5CCN(CCN6CCOCC6)CC5)c4)s3)[nH]c12`, with 153 nM; and `CCC(NC(=O)c1ccccc1NC(=O)c1ccc(C)cc1)C(=O)OC` (stereo unspecified), with 762 nM. The compound `N#Cc1ccc(-c2ccc3nc(N4CCCN(C5CCC5)CC4)ccc3c2)cc1` had an XC50 of 1500 nM. Then `c1ccc(-c2ccc(CNCc3ccc(-c4cccc(-c5nc6ccccc6[nH]5)c4)cc3)s2)nc1`, with 396 nM; and `COc1cc2nc(N3CCC(CNC(=O)c4ccc(-c5ccc(C(=O)N(C)C)cc5)cc4)CC3)nc(N)c2cc1OC`, with 746 nM. In the case of `Nc1nc(N)c2c(Oc3cccc4ccccc34)cccc2n1`, the XC50 came out at 1010 nM. In turn, `c1cncc(Oc2ccc(Nc3ccnc4cc(-c5cccc(CN6CCOCC6)c5)ccc34)cc2)c1` had an XC50 of 305 nM.

For the compound `COc1cc2nc(NCC3CCCCC3)nc(NCc3ccccc3)c2cc1OC`, the XC50 was 142 nM. Then `COc1cc2c(c(OC)c1OC)C[C@H]1c3c(cc4c(c3-2)OCO4)CCN1C`, with 969 nM; and `CC1CC1C(=O)NC1CCN(CC2(c3ccccc3)CCCCC2)CC1` (stereo unspecified), with 637 nM; and `COc1ccc2c(NN=Cc3ccc(Cl)cc3)ccnc2c1`, with 865 nM. Then `N#Cc1ccc2c(c1)CCN(CCC1CCC(NC(=O)c3cc4ccc(Cl)cc4[nH]3)CC1)C2` (stereo unspecified), with 700 nM; and `Cc1ccc(CNC(=O)[C@H](CCCN)Nc2cc(C)nc(Nc3ccccc3)n2)cc1`, with 1290 nM; and `Cc1cc(=NN=Cc2ccc(F)cc2)c2ccc(C(F)(F)F)cc2[nH]1`, with 816 nM. Then `COc1cc(NCCCCCNc2cc(Cl)nc3ccccc23)nc2ccccc12`, with 783 nM; and `CCCCCCN1CCC(NCc2cccc(-n3ccnc3)c2)CC1`, with 255 nM. In turn, `COc1ccccc1C1CC(c2ccccc2)=NN1C(=O)c1ccccc1` (stereo unspecified) gave an XC50 of 296 nM. Under `CC(C)CCn1c(Sc2ccc(C#N)c([N+](=O)[O-])c2)nnc1-c1ccc(N(C)C)cc1` stands 786 nM; under `COc1ccc(C(=O)CCC(=O)N(CCC2CCCN2C)Cc2ccc(-c3ccc(CNCCc4ccc(S(C)(=O)=O)cc4)cn3)cc2)cc1F` (stereo unspecified), 874 nM; under `COc1cc2c(cc1C(F)(F)F)N(C(=O)Nc1cc(F)cc(-c3cncnc3)c1)CC2`, 500 nM. Take `COc1cccc(NC(=O)c2ccc(NCCCN3CC(C)CC(C)C3)c([N+](=O)[O-])c2)c1` (stereo unspecified): the XC50 was found to be 721 nM.

In turn, `Cc1cc(N(C)C)nc(Nc2ccc(NC(=O)COc3ccccc3)cc2)n1` gave an XC50 of 1760 nM. Then `COc1ccc(OC)c(Cc2c(C)nc3nc(N)nc(N)c3c2C)c1`, with 864 nM; and `O=C(Nc1ccc(OC2CCN(Cc3ccsc3)C2)c(Cl)c1)c1cccs1` (stereo unspecified), with 960 nM; and `CC(C)C[C@H](Nc1ccnc(NCC2CCCCC2)n1)C(=O)Nc1ccccc1`, with 1430 nM. Then `O=C(Nc1ccc(C(F)(F)F)cc1)c1ccc(S(=O)(=O)NC2CCCN(CC3CCCCC3)C2)cc1` (stereo unspecified), with 718 nM; and `O=C(Nc1ccccc1)N(Cc1ccccc1-c1cccc(CNCCc2ccccc2)c1)C1CCN(Cc2ccccc2)CC1`, with 176 nM; and `CC(=O)c1cccc(NC(=O)c2ccc(Cl)c(S(=O)(=O)N3CCc4ccccc43)c2)c1`, with 1640 nM. Then `CCc1cn(C)c2c(N3CCCC3=O)cc(C(=O)N[C@@H](Cc3ccccc3)[C@H](O)CNC(C)(C)c3cccc(OC)c3)cc12`, with 36 nM; and `COc1ccc(N2CCN(c3nc(Nc4ccc(NC(C)=O)cc4)nc(N4CCCC4)n3)CC2)cc1`, with 976 nM; and `Cc1cccc2nc(-c3ccc(-c4ccc(CN5CCC(C(N)=O)CC5)cc4)s3)[nH]c12`, with 907 nM. In the case of `COc1cc(NC(=O)/C=C/c2cc3ccccc3n2C)ccc1OCCN(C(C)C)C(C)C`, the XC50 was determined as 387 nM. Turning to `CCOc1ccc2nc3cc(N)ccc3c(N)c2c1`, the XC50 was found to be 527 nM.

`Cc1ccc(-c2cncc(-c3cc(NC4CCN(Cc5ccccc5)CC4)nc(-c4ccccc4)n3)c2)cc1` showed an XC50 of 720 nM. Under `CCc1ccc(CN2CCC(NC(=O)c3cc(-c4ccc(N(C)C)cc4)cs3)C2)cc1` (stereo unspecified) stands 1440 nM; under `CCOc1ccc2[nH]c(C)cc(=NN=Cc3cccc(C)n3)c2c1`, 754 nM. Then `COc1cc2c(cc1OCCN1CCC(N3CCCCC3)CC1)N(C(=O)/C=C/c1ccccc1OC(F)(F)F)CC2`, with 590 nM; and `COc1ccc2[nH]c(C)cc(=NN=Cc3ccccc3F)c2c1`, with 365 nM. Then `COc1cc2c(c(OC)c1[N+](=O)[O-])C=CC1(O2)N(C)c2ccc([N+](=O)[O-])cc2C1(C)C` (stereo unspecified), with 905 nM; and `O=C1Nc2cccc3c2C1(CCCCN1CCC(c2c(-c4ccccc4)[nH]c4ccccc24)CC1)CCC3` (stereo unspecified), with 1200 nM; and `CN1CCC(NCc2cccc(-c3cccc(-c4nc5cc(C(F)(F)F)ccc5[nH]4)c3)c2)CC1`, with 142 nM.

Take `NCC1CCCN1Cc1ccc(-c2ccc(-c3nc4ccccc4[nH]3)s2)cc1` (stereo unspecified): the XC50 amounted to 934 nM.

`CCCCOC(C(=O)OCC1CCCN1C)(c1ccccc1)c1ccccc1` (stereo unspecified): the XC50 amounted to 786 nM. Compound `Oc1cc(Nc2ccnc3cc(-c4ccc(CN5CCCCC5)o4)c(Cl)cc23)c(Cl)cc1F` had an XC50 of 1260 nM. Then `CCOC(=O)c1ccc(NC(=O)N[C@@H](Cc2ccccc2)C(=O)NC2CCN(Cc3ccc(O)cc3)C2)cc1` (stereo partly specified), with 628 nM; and `Cc1ccc(C)c2sc(N(CCCn3ccnc3)C(=O)C=Cc3cccs3)nc12`, with 1060 nM; and `c1ccc(-c2cccnn2)cc1`, with 910 nM. Under `COc1cc(OC)cc(-c2nc3ccc(OCCN(C)C)c(C#N)c3[nH]2)c1` stands 655 nM; under `Cc1cc(=O)[nH]c2cc(Nc3ccnc(Nc4cccc(C(N)=O)c4)n3)ccc12`, 1520 nM.
